In US20220043347A1, “ACTINIC RAY-SENSITIVE OR RADIATION-SENSITIVE RESIN COMPOSITION, RESIST FILM, PATTERN FORMING METHOD, AND METHOD FOR MANUFACTURING ELECTRONIC DEVICE” (FUJIFILM Corporation, priority 2019, published 2022):

Assay: Acid dissociation constant (pKa) determined by computation (ACD/Labs Software Package 1; Gaussian 16 DFT where not calculable)
Conditions: acid generated from photoacid generator B
Excerpt: In the present specification, an acid dissociation constant (pKa) represents a pKa in an aqueous solution, and is specifically a value determined by computation from a value based on a Hammett's substituent constant and database of publicly known literature values, using the following software package 1. Any of the pKa values described in the present specification indicate values determined by computation using the software package.
Software Package 1: Advanced Chemistry Development (ACD/Labs) Software V 8.14 for Solaris (1994-2007 ACD/Labs).
As described above, the pKa in the present specification refers to a value determined by computation from a value based on a Hammett's substituent constant and database of publicly known literature values, using the software package 1, but in a case where the pKa cannot be calculated by the method, a value obtained by Gaussian 16 based on density functional theory (DFT) shall be adopted.
In addition, the pKa in the present specification refers to a “pKa in an aqueous solution” as described above, but in a case where the pKa in an aqueous solution cannot be calculated, a “pKa in a dimethyl sulfoxide (DMSO) solution” shall be adopted.
Furthermore, in the measurement of the acid dissociation constant (pKa) of an acid generated from the photoacid generator B, specifically, the pKa is a value determined by subjecting a compound formed by substituting each cationic moiety in the compounds B-1 to B-29 with […](for example, in a case of the compound B-1, a compound formed by substituting the triphenylsulfonium cation with H^+) to computation from a value based on a Hammett's substituent constant and database of publicly known literature values, using Software Package 1 of ACD/Labs, as described above. In addition, in a case where pKa could not be calculated by the method, a value obtained by Gaussian 16 based on density functional theory (DFT) was adopted.
In the following table, “pKa1” represents an acid dissociation constant of the first stage, “pKa2” represents an acid dissociation constant of the second stage, and “pKa3” represents an acid dissociation constant of the third stage. A smaller value of pKa means a higher acidity. […]

Difference between acid dissociation constant a1 and acid dissociation constant a2	SMILES
2.55	CS(=O)(=O)[N-]C(=O)C(F)(F)C(F)(F)C(F)(F)C(=O)OCC(F)S(=O)(=O)[O-].c1ccc([S+](c2ccccc2)c2ccccc2)cc1.c1ccc([S+](c2ccccc2)c2ccccc2)cc1 (stereo not drawn) [Compound B-5]
3.23	CS(=O)(=O)NS(=O)(=O)CCCOC(=O)C(F)(F)S(=O)(=O)O [Compound B-11]
9.59	COc1ccc([S+](c2ccccc2)c2ccccc2)cc1.COc1ccc([S+](c2ccccc2)c2ccccc2)cc1.O=S(=O)([O-])C(F)(F)C(F)(F)C(F)(F)S(=O)(=O)[N-]C1CCCCC1 [Compound B-2]
0.74	CC1(C)C2CCC1(CS(=O)(=O)[N-]S(=O)(=O)C(F)(F)C(F)(F)C(F)(F)S(=O)(=O)[O-])C(=O)C2.Cc1ccc([S+](c2ccccc2)c2ccccc2)cc1.Cc1ccc([S+](c2ccccc2)c2ccccc2)cc1 (stereo not drawn) [Compound B-16]
4.82	COc1ccc([S+](c2ccccc2)c2ccccc2)cc1.COc1ccc([S+](c2ccccc2)c2ccccc2)cc1.O=C(OCCCS(=O)(=O)[O-])C(F)(F)S(=O)(=O)[O-] [Compound B-6]
9.23	O=C(COC(=O)C(F)(F)S(=O)(=O)O)NC(=O)C(F)(F)F [Compound B-4]
3.17	O=C(CC(F)(F)F)[N-]S(=O)(=O)C(F)(F)C(F)(F)C(F)(F)S(=O)(=O)[O-].c1ccc([S+](c2ccccc2)c2ccccc2)cc1.c1ccc([S+](c2ccccc2)c2ccccc2)cc1 [Compound B-1]
4.99	CC(C)(C)OC(=O)c1cc(OS(=O)(=O)C(F)(F)S(=O)(=O)[O-])cc(C(=O)[N-]S(=O)(=O)C(F)(F)S(=O)(=O)[O-])c1.Cc1cc(C)cc([S+](c2cc(C)cc(C)c2)c2cc(C(F)(F)F)cc(C(F)(F)F)c2)c1.Cc1cc(C)cc([S+](c2cc(C)cc(C)c2)c2cc(C(F)(F)F)cc(C(F)(F)F)c2)c1.Cc1cc(C)cc([S+](c2cc(C)cc(C)c2)c2cc(C(F)(F)F)cc(C(F)(F)F)c2)c1 [Compound B-26]
2.53	Cc1cc([S+](c2ccc(C(F)(F)F)cc2)c2ccc(C(F)(F)F)cc2)cc(C)c1OCC(=O)OC(C)(C)C.Cc1cc([S+](c2ccc(C(F)(F)F)cc2)c2ccc(C(F)(F)F)cc2)cc(C)c1OCC(=O)OC(C)(C)C.Cc1cc([S+](c2ccc(C(F)(F)F)cc2)c2ccc(C(F)(F)F)cc2)cc(C)c1OCC(=O)OC(C)(C)C.O=C([N-]S(=O)(=O)C(F)(F)C(F)(F)C(F)(F)S(=O)(=O)[O-])c1ccc(OS(=O)(=O)C(F)(F)C(F)(F)C(F)(F)S(=O)(=O)[O-])cc1 [Compound B-25]
2.79	CC(C)(C#N)C(=O)[N-]S(=O)(=O)C(F)(F)C(F)(F)C(F)(F)S(=O)(=O)[N-]S(C)(=O)=O.Cc1ccc(-[s+]2c3ccccc3c3ccccc32)cc1.Cc1ccc(-[s+]2c3ccccc3c3ccccc32)cc1 [Compound B-15]

SMILES	Difference between acid dissociation constant a1 and acid dissociation constant a2
O=C(O)C(F)(F)C(F)(F)C(F)(F)C(=O)OC12CC3CC(CC(COC(=O)C(F)(F)S(=O)(=O)O)(C3)C1)C2 [Compound B-3]	2.92
CC1(OC(=O)c2cc(C(=O)NS(=O)(=O)C(F)(F)C(F)(F)C(F)(F)S(=O)(=O)NS(=O)(=O)C(F)(F)F)cc(C(=O)OC3(C)CCCC3)c2)CCCC1 [Compound B-23]	10.13
O=C([O-])CCCOC(=O)C(CS(=O)(=O)[O-])C(F)(F)F.O=S(=O)(c1ccc([S+](c2ccccc2)c2ccccc2)cc1)C1CCCCC1.O=S(=O)(c1ccc([S+](c2ccccc2)c2ccccc2)cc1)C1CCCCC1 [Compound B-14]	3.63
O=C(NS(=O)(=O)C(F)(F)C(F)(F)C(F)(F)S(=O)(=O)O)c1ccccc1I [Compound B-22]	2.97
CCCCC(CC)C(=O)NS(=O)(=O)C(F)(F)C(F)(F)C(F)(F)S(=O)(=O)NS(=O)(=O)C(F)(F)F (stereo not drawn) [Compound B-12]	11.4
